Laboratory results as given in PubChem BioAssay (NCI).
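All cell lines were grown in 96-well plates and treated with compound for 48 hours. The concentration for 50% growth inhibition is given as GI50. TGI: concentration producing complete growth inhibition.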

Tests used:
Experiment in all cases: NCI-60 cell line screen, 48 h
SK-MEL-5 melanoma = tested on: SK-MEL-5 melanoma
CCRF-CEM leukemia = tested on: CCRF-CEM leukemia
SK-OV-3 ovarian = tested on: SK-OV-3 ovarian
HOP-62 NSCLC = tested on: HOP-62 NSCLC
NCI-H460 lung = tested on: NCI-H460 lung
SN12C renal = tested on: SN12C renal
M14 melanoma = tested on: M14 melanoma
SW-620 colon = tested on: SW-620 colon
MDA-MB-435 = tested on: MDA-MB-435
NCI-H23 lung = tested on: NCI-H23 lung
SF-268 CNS = tested on: SF-268 CNS
U251 CNS = tested on: U251 CNS
DU-145 prostate = tested on: DU-145 prostate
SNB-19 CNS = tested on: SNB-19 CNS
RPMI-8226 leukemia = tested on: RPMI-8226 leukemia
HCC-2998 colon = tested on: HCC-2998 colon
HCT-116 colon = tested on: HCT-116 colon
A549 NSCLC = tested on: A549 NSCLC
NCI-H522 lung = tested on: NCI-H522 lung
UACC-62 melanoma = tested on: UACC-62 melanoma
SNB-75 CNS = tested on: SNB-75 CNS
NCI/ADR-RES ovarian = tested on: NCI/ADR-RES ovarian
KM12 colon = tested on: KM12 colon
MDA-MB-231 breast = tested on: MDA-MB-231 breast
OVCAR-8 ovarian = tested on: OVCAR-8 ovarian
OVCAR-4 ovarian = tested on: OVCAR-4 ovarian
A498 renal = tested on: A498 renal
T-47D breast = tested on: T-47D breast
UACC-257 melanoma = tested on: UACC-257 melanoma
RXF 393 renal = tested on: RXF 393 renal
SF-295 CNS = tested on: SF-295 CNS
MDA-MB-468 breast = tested on: MDA-MB-468 breast
HL-60(TB) leukemia = tested on: HL-60(TB) leukemia
MOLT-4 leukemia = tested on: MOLT-4 leukemia
SR leukemia = tested on: SR leukemia
ACHN renal = tested on: ACHN renal
PC-3 prostate = tested on: PC-3 prostate
MCF7 breast = tested on: MCF7 breast
K-562 leukemia = tested on: K-562 leukemia
SK-MEL-28 melanoma = tested on: SK-MEL-28 melanoma
OVCAR-5 ovarian = tested on: OVCAR-5 ovarian
LOX IMVI melanoma = tested on: LOX IMVI melanoma
HT29 colon = tested on: HT29 colon
HS 578T breast = tested on: HS 578T breast
MALME-3M melanoma = tested on: MALME-3M melanoma
SK-MEL-2 melanoma = tested on: SK-MEL-2 melanoma
HCT-15 colon = tested on: HCT-15 colon
UO-31 renal = tested on: UO-31 renal
SF-539 CNS = tested on: SF-539 CNS
TK-10 renal = tested on: TK-10 renal
786-0 renal = tested on: 786-0 renal
NCI-H226 lung = tested on: NCI-H226 lung
OVCAR-3 ovarian = tested on: OVCAR-3 ovarian
IGROV1 ovarian = tested on: IGROV1 ovarian
EKVX NSCLC = tested on: EKVX NSCLC
CAKI-1 renal = tested on: CAKI-1 renal
BT-549 breast = tested on: BT-549 breast
COLO 205 colon = tested on: COLO 205 colon
HOP-92 NSCLC = tested on: HOP-92 NSCLC

## CN1CCN(Cc2ccc(C(=O)Nc3cccc(C#Cc4cccc5[nH]nc(N)c45)c3)cc2C(F)(F)F)CC1
SK-MEL-5 melanoma
  GI50: 1490 nM
  TGI: 2810 nM
CCRF-CEM leukemia
  GI50: 1170 nM
  TGI: 3330 nM
SK-OV-3 ovarian
  GI50: 1940 nM
  TGI: 3470 nM
HOP-62 NSCLC
  GI50: 1470 nM
  TGI: 2890 nM
NCI-H460 lung
  GI50: 982 nM
  TGI: 2530 nM
SN12C renal
  GI50: 739 nM
  TGI: 2140 nM
M14 melanoma
  GI50: 420 nM
  TGI: 1650 nM
SW-620 colon
  GI50: 968 nM
  TGI: 2370 nM
MDA-MB-435
  GI50: 1090 nM
  TGI: 2450 nM
NCI-H23 lung
  GI50: 1250 nM
  TGI: 2530 nM
SF-268 CNS
  GI50: 1070 nM
  TGI: 2420 nM
U251 CNS
  GI50: 1220 nM
  TGI: 2470 nM
DU-145 prostate
  GI50: 1200 nM
  TGI: 2460 nM
SNB-19 CNS
  GI50: 1840 nM
  TGI: 3250 nM
RPMI-8226 leukemia
  GI50: 1120 nM
  TGI: 3260 nM
HCC-2998 colon
  GI50: 880 nM
  TGI: 2190 nM
HCT-116 colon
  GI50: 420 nM
  TGI: 1620 nM
A549 NSCLC
  GI50: 721 nM
  TGI: 2010 nM
NCI-H522 lung
  GI50: 752 nM
  TGI: 2160 nM
UACC-62 melanoma
  GI50: 1140 nM
  TGI: 2390 nM
SNB-75 CNS
  GI50: 1450 nM
  TGI: 3690 nM
NCI/ADR-RES ovarian
  GI50: 1480 nM
  TGI: 3320 nM
KM12 colon
  GI50: 1410 nM
  TGI: 2930 nM
MDA-MB-231 breast
  GI50: 401 nM
  TGI: 1730 nM
OVCAR-8 ovarian
  GI50: 1160 nM
  TGI: 2380 nM
OVCAR-4 ovarian
  GI50: 889 nM
  TGI: 3140 nM
A498 renal
  GI50: 2380 nM
  TGI: 3950 nM
T-47D breast
  GI50: 1560 nM
  TGI: 3270 nM
UACC-257 melanoma
  GI50: 1360 nM
  TGI: 2730 nM
RXF 393 renal
  GI50: 571 nM
  TGI: 1820 nM
SF-295 CNS
  GI50: 1330 nM
  TGI: 2630 nM
MDA-MB-468 breast
  GI50: 760 nM
  TGI: 2080 nM
HL-60(TB) leukemia
  GI50: 278 nM
  TGI: 1600 nM
MOLT-4 leukemia
  GI50: 494 nM
  TGI: 2280 nM
SR leukemia
  GI50: 1100 nM
  TGI: 3350 nM
ACHN renal
  GI50: 409 nM
  TGI: 1400 nM
PC-3 prostate
  GI50: 1000 nM
  TGI: 2770 nM
MCF7 breast
  GI50: 1510 nM
  TGI: 2900 nM
K-562 leukemia
  TGI: 1020 nM
SK-MEL-28 melanoma
  GI50: 1260 nM
  TGI: 2530 nM
OVCAR-5 ovarian
  GI50: 1280 nM
  TGI: 2600 nM
LOX IMVI melanoma
  GI50: 469 nM
  TGI: 1610 nM
HT29 colon
  GI50: 603 nM
  TGI: 1940 nM
HS 578T breast
  GI50: 1330 nM
  TGI: 4640 nM
MALME-3M melanoma
  GI50: 284 nM
  TGI: 1200 nM
SK-MEL-2 melanoma
  GI50: 1530 nM
  TGI: 3030 nM
HCT-15 colon
  GI50: 648 nM
  TGI: 1780 nM
UO-31 renal
  GI50: 854 nM
  TGI: 2090 nM
SF-539 CNS
  GI50: 305 nM
  TGI: 1350 nM
TK-10 renal
  GI50: 1750 nM
  TGI: 3170 nM
786-0 renal
  GI50: 1280 nM
  TGI: 2610 nM
NCI-H226 lung
  GI50: 1000 nM
  TGI: 2180 nM
OVCAR-3 ovarian
  GI50: 1000 nM
  TGI: 2510 nM
IGROV1 ovarian
  GI50: 387 nM
  TGI: 1440 nM
EKVX NSCLC
  GI50: 1090 nM
  TGI: 2300 nM
CAKI-1 renal
  GI50: 1160 nM
  TGI: 2370 nM
BT-549 breast
  GI50: 1800 nM
  TGI: 4060 nM
COLO 205 colon
  GI50: 862 nM
  TGI: 2210 nM
HOP-92 NSCLC
  GI50: 285 nM
  TGI: 1400 nM
